From the NIST ThermoML archive (doi:10.1016/j.jct.2005.04.015)
Numbers after ± are expanded uncertainties.

Test: excess molar enthalpy (molar enthalpy of mixing); xn = mol fraction of the nth substance listed
Conditions: Liquid, Flow calorimetry

CCOC=O [ethyl methanoate] + CC(C)O
Conditions | excess molar enthalpy [kJ/mol]
298.15 K, 5000 kPa, x1 = 0.0498 | 0.337 ± 0.0074
298.15 K, 5000 kPa, x1 = 0.0993 | 0.662 ± 0.014
298.15 K, 5000 kPa, x1 = 0.1485 | 0.926 ± 0.02
298.15 K, 5000 kPa, x1 = 0.2008 | 1.15 ± 0.025
298.15 K, 5000 kPa, x1 = 0.2493 | 1.32 ± 0.028
298.15 K, 5000 kPa, x1 = 0.3009 | 1.46 ± 0.031
298.15 K, 5000 kPa, x1 = 0.3488 | 1.56 ± 0.033
298.15 K, 5000 kPa, x1 = 0.3997 | 1.64 ± 0.035
298.15 K, 5000 kPa, x1 = 0.4503 | 1.68 ± 0.036
298.15 K, 5000 kPa, x1 = 0.5005 | 1.69 ± 0.036
298.15 K, 5000 kPa, x1 = 0.5504 | 1.67 ± 0.036
298.15 K, 5000 kPa, x1 = 0.5999 | 1.63 ± 0.035
298.15 K, 5000 kPa, x1 = 0.6492 | 1.56 ± 0.033
298.15 K, 5000 kPa, x1 = 0.7013 | 1.44 ± 0.031
298.15 K, 5000 kPa, x1 = 0.7498 | 1.3 ± 0.028
298.15 K, 5000 kPa, x1 = 0.8012 | 1.12 ± 0.024
298.15 K, 5000 kPa, x1 = 0.8997 | 0.654 ± 0.014
298.15 K, 5000 kPa, x1 = 0.95 | 0.359 ± 0.0079
298.15 K, 10000 kPa, x1 = 0.0497 | 0.31 ± 0.0068
298.15 K, 10000 kPa, x1 = 0.099 | 0.638 ± 0.014
298.15 K, 10000 kPa, x1 = 0.1516 | 0.914 ± 0.02
298.15 K, 10000 kPa, x1 = 0.2003 | 1.13 ± 0.024
298.15 K, 10000 kPa, x1 = 0.2487 | 1.3 ± 0.028
298.15 K, 10000 kPa, x1 = 0.3002 | 1.44 ± 0.031
298.15 K, 10000 kPa, x1 = 0.3514 | 1.54 ± 0.033
298.15 K, 10000 kPa, x1 = 0.3989 | 1.6 ± 0.034
298.15 K, 10000 kPa, x1 = 0.4495 | 1.64 ± 0.035
298.15 K, 10000 kPa, x1 = 0.4997 | 1.66 ± 0.035
298.15 K, 10000 kPa, x1 = 0.5496 | 1.64 ± 0.035
298.15 K, 10000 kPa, x1 = 0.5991 | 1.61 ± 0.034
298.15 K, 10000 kPa, x1 = 0.6484 | 1.54 ± 0.033
298.15 K, 10000 kPa, x1 = 0.7006 | 1.42 ± 0.03
298.15 K, 10000 kPa, x1 = 0.7492 | 1.3 ± 0.028
298.15 K, 10000 kPa, x1 = 0.8006 | 1.11 ± 0.024
298.15 K, 10000 kPa, x1 = 0.8994 | 0.655 ± 0.014
298.15 K, 10000 kPa, x1 = 0.9499 | 0.362 ± 0.0079
308.15 K, 10000 kPa, x1 = 0.0487 | 0.214 ± 0.0048
308.15 K, 10000 kPa, x1 = 0.1 | 0.58 ± 0.013
308.15 K, 10000 kPa, x1 = 0.1511 | 0.884 ± 0.019
308.15 K, 10000 kPa, x1 = 0.1988 | 1.12 ± 0.024
308.15 K, 10000 kPa, x1 = 0.2492 | 1.31 ± 0.028
308.15 K, 10000 kPa, x1 = 0.2993 | 1.47 ± 0.031
308.15 K, 10000 kPa, x1 = 0.349 | 1.58 ± 0.034
308.15 K, 10000 kPa, x1 = 0.4013 | 1.67 ± 0.036
308.15 K, 10000 kPa, x1 = 0.4504 | 1.71 ± 0.037
308.15 K, 10000 kPa, x1 = 0.4992 | 1.73 ± 0.037
308.15 K, 10000 kPa, x1 = 0.5505 | 1.71 ± 0.037
308.15 K, 10000 kPa, x1 = 0.5987 | 1.67 ± 0.036
308.15 K, 10000 kPa, x1 = 0.6996 | 1.48 ± 0.032
308.15 K, 10000 kPa, x1 = 0.7496 | 1.34 ± 0.029
308.15 K, 10000 kPa, x1 = 0.7993 | 1.16 ± 0.025
308.15 K, 10000 kPa, x1 = 0.8513 | 0.944 ± 0.02
308.15 K, 10000 kPa, x1 = 0.9003 | 0.683 ± 0.015
308.15 K, 10000 kPa, x1 = 0.949 | 0.381 ± 0.0083

CCOC=O [ethyl methanoate] + CCC(C)O
excess molar enthalpy [kJ/mol]
Conditions | 298.15 K | 308.15 K
5000 kPa, x1 = 0.1504 | 0.979 ± 0.021 | –
5000 kPa, x1 = 0.1997 | 1.21 ± 0.026 | –
5000 kPa, x1 = 0.2497 | 1.41 ± 0.03 | –
5000 kPa, x1 = 0.3005 | 1.56 ± 0.033 | –
5000 kPa, x1 = 0.3501 | 1.67 ± 0.036 | –
5000 kPa, x1 = 0.4005 | 1.75 ± 0.037 | –
5000 kPa, x1 = 0.4497 | 1.8 ± 0.038 | –
5000 kPa, x1 = 0.4996 | 1.81 ± 0.039 | –
5000 kPa, x1 = 0.5502 | 1.78 ± 0.038 | –
5000 kPa, x1 = 0.5995 | 1.73 ± 0.037 | –
5000 kPa, x1 = 0.6496 | 1.65 ± 0.035 | –
5000 kPa, x1 = 0.7003 | 1.53 ± 0.033 | –
5000 kPa, x1 = 0.7496 | 1.37 ± 0.029 | –
5000 kPa, x1 = 0.7996 | 1.19 ± 0.025 | –
5000 kPa, x1 = 0.8996 | 0.651 ± 0.014 | –
5000 kPa, x1 = 0.9494 | 0.34 ± 0.0075 | –
10000 kPa, x1 = 0.0492 | 0.353 ± 0.0077 | –
10000 kPa, x1 = 0.0496 | – | 0.421 ± 0.0092
10000 kPa, x1 = 0.0992 | 0.713 ± 0.015 | –
10000 kPa, x1 = 0.1 | – | 0.826 ± 0.018
10000 kPa, x1 = 0.15 | 1.02 ± 0.022 | –
10000 kPa, x1 = 0.1513 | – | 1.16 ± 0.025
10000 kPa, x1 = 0.1985 | 1.25 ± 0.027 | –
10000 kPa, x1 = 0.2007 | – | 1.41 ± 0.03
10000 kPa, x1 = 0.2509 | 1.45 ± 0.031 | 1.61 ± 0.035
10000 kPa, x1 = 0.2992 | – | 1.77 ± 0.038
10000 kPa, x1 = 0.301 | 1.6 ± 0.034 | –
10000 kPa, x1 = 0.3487 | 1.7 ± 0.036 | –
10000 kPa, x1 = 0.351 | – | 1.89 ± 0.04
10000 kPa, x1 = 0.4004 | 1.78 ± 0.038 | –
10000 kPa, x1 = 0.4008 | – | 1.97 ± 0.042
10000 kPa, x1 = 0.4495 | 1.82 ± 0.039 | –
10000 kPa, x1 = 0.4514 | – | 2.01 ± 0.043
10000 kPa, x1 = 0.4994 | 1.84 ± 0.039 | –
10000 kPa, x1 = 0.4999 | – | 2.01 ± 0.043
10000 kPa, x1 = 0.5491 | – | 1.99 ± 0.042
10000 kPa, x1 = 0.5501 | 1.81 ± 0.039 | –
10000 kPa, x1 = 0.599 | – | 1.93 ± 0.041
10000 kPa, x1 = 0.6015 | 1.76 ± 0.038 | –
10000 kPa, x1 = 0.6497 | – | 1.82 ± 0.039
10000 kPa, x1 = 0.6502 | 1.68 ± 0.036 | –
10000 kPa, x1 = 0.6996 | 1.56 ± 0.033 | –
10000 kPa, x1 = 0.7011 | – | 1.69 ± 0.036
10000 kPa, x1 = 0.7497 | 1.38 ± 0.03 | –
10000 kPa, x1 = 0.7502 | – | 1.52 ± 0.033
10000 kPa, x1 = 0.8 | – | 1.31 ± 0.028
10000 kPa, x1 = 0.8006 | 1.19 ± 0.025 | –
10000 kPa, x1 = 0.8485 | 0.932 ± 0.02 | –
10000 kPa, x1 = 0.8506 | – | 1.07 ± 0.023
10000 kPa, x1 = 0.8986 | – | 0.776 ± 0.017
10000 kPa, x1 = 0.9008 | 0.642 ± 0.014 | –
10000 kPa, x1 = 0.95 | 0.374 ± 0.0082 | –
10000 kPa, x1 = 0.9506 | – | 0.404 ± 0.0088

CCOC=O [ethyl methanoate] + CCCCCO
298.15 K
Conditions | excess molar enthalpy [kJ/mol]
5000 kPa, x1 = 0.0502 | 0.259 ± 0.0058
5000 kPa, x1 = 0.0995 | 0.606 ± 0.013
5000 kPa, x1 = 0.1505 | 0.92 ± 0.02
5000 kPa, x1 = 0.2006 | 1.17 ± 0.025
5000 kPa, x1 = 0.2494 | 1.36 ± 0.029
5000 kPa, x1 = 0.2998 | 1.51 ± 0.032
5000 kPa, x1 = 0.3487 | 1.62 ± 0.035
5000 kPa, x1 = 0.3992 | 1.69 ± 0.036
5000 kPa, x1 = 0.4514 | 1.71 ± 0.036
5000 kPa, x1 = 0.4984 | 1.72 ± 0.037
5000 kPa, x1 = 0.5503 | 1.7 ± 0.036
5000 kPa, x1 = 0.6002 | 1.64 ± 0.035
5000 kPa, x1 = 0.6516 | 1.56 ± 0.033
5000 kPa, x1 = 0.7007 | 1.45 ± 0.031
5000 kPa, x1 = 0.7513 | 1.3 ± 0.028
5000 kPa, x1 = 0.7992 | 1.12 ± 0.024
5000 kPa, x1 = 0.8484 | 0.899 ± 0.019
5000 kPa, x1 = 0.899 | 0.631 ± 0.014
5000 kPa, x1 = 0.951 | 0.316 ± 0.007
10000 kPa, x1 = 0.05 | 0.396 ± 0.0087
10000 kPa, x1 = 0.0992 | 0.743 ± 0.016
10000 kPa, x1 = 0.1501 | 1.03 ± 0.022
10000 kPa, x1 = 0.2 | 1.27 ± 0.027
10000 kPa, x1 = 0.2487 | 1.44 ± 0.031
10000 kPa, x1 = 0.2991 | 1.57 ± 0.034
10000 kPa, x1 = 0.3511 | 1.69 ± 0.036
10000 kPa, x1 = 0.3984 | 1.75 ± 0.037
10000 kPa, x1 = 0.4505 | 1.78 ± 0.038
10000 kPa, x1 = 0.501 | 1.78 ± 0.038
10000 kPa, x1 = 0.5495 | 1.75 ± 0.037
10000 kPa, x1 = 0.5994 | 1.7 ± 0.036
10000 kPa, x1 = 0.6508 | 1.6 ± 0.034
10000 kPa, x1 = 0.7 | 1.48 ± 0.032
10000 kPa, x1 = 0.7506 | 1.3 ± 0.028
10000 kPa, x1 = 0.7987 | 1.12 ± 0.024
10000 kPa, x1 = 0.848 | 0.908 ± 0.019
10000 kPa, x1 = 0.8987 | 0.643 ± 0.014
10000 kPa, x1 = 0.9509 | 0.336 ± 0.0074
